Counter-ions that a name gives are not always drawn.
Assay: Plasma clearance
Type: in vivo
Conditions: dog, 1 mg/kg, male Beagle dogs, intravenous, 1 mL/kg of 1.0 mg/mL (free base equivalents)
Description: Male Beagle dogs (body weight range 10-12 kg) are obtained from Marshall Bioresources, USA. Test compound is administered intravenously in solution (1 mL/kg) in 20% Captisol® in 22.5 mM phosphate buffer, pH 2, at a final drug concentration of 1.0 mg/mL (free base equivalents). Blood samples are obtained from the jugular vein over 24 hr. Samples of plasma are obtained by centrifugation and stored frozen (−20° C.) prior to analysis.
Frozen plasma samples are thawed to room temperature for bioanalysis of concentrations of test compound. A related internal standard compound in acetonitrile/methanol (1:1, v/v) is added to all samples of plasma (1:1, v/v). The samples are centrifuged to remove precipitated protein prior to analysis. The supernatants are analysed by injection and rapid gradient elution on a Javelin Betasil C18 column (20×2.1 mm cartridge, Mobile phase A: Water/1 M NH4HCO3, 2000:10 v/v, Mobile Phase B: MeOH/1 M NH4HCO3, 2000:10 v/v). The eluted analytes are detected by LC-MS-MS analysis using a Sciex API 4000 triple quadrupole mass spectrometer. Concentrations of compound are determined from standards prepared and analysed under identical conditions. Clearance is calculated using non-compartmental analysis in Watson 7.4, Thermo Fisher Scientific, Inc.

Cc1ccc2c(c1)Oc1sc(C3CC3)cc1C(N1CCN(CC(C)(C)C(=O)O)CC1)=N2 [Example 2, 3-[4-(2-Cyclopropyl-8-methyl-thieno[2,3-b][1,5]benzoxazepin-4-yl)piperazin-1-yl]-2,2-dimethyl-propanoic acid dihydrochloride]
clearance: 6.06 mL/min/kg

From US9562057B2, “(Thieno[2,3-b][1,5]benzoxazepin-4-yl)piperazin-1-yl compounds as dual activity H1 inverse agonists/5-HT2A antagonists” (Eli Lilly and Company, priority 2013, dated 2017)
